Experiments:
Type in all cases: functional
Homo sapiens [1] = species: Homo sapiens; assay: Mitogen-induced human lymphocyte proliferation measured by incorporation of [3H]thymidine in lymphocytes with Phytohemagglutininin at a concentration of 0.125 microg with compound at 50 uM
Homo sapiens [2] = species: Homo sapiens; assay: Mitogen-induced human lymphocyte proliferation measured by incorporation of [3H]thymidine in lymphocytes with Phytohemagglutininin at a concentration of 0.125 microg with compound at 0.1 uM
Homo sapiens [3] = species: Homo sapiens; assay: Mitogen-induced human lymphocyte proliferation measured by incorporation of [3H]thymidine in lymphocytes with Pokeweed mitogen at a concentration of 1/5000 microg with out compound
Homo sapiens [4] = species: Homo sapiens; assay: Mitogen-induced human lymphocyte proliferation measured by incorporation of [3H]thymidine in lymphocytes with Phytohemagglutininin at a concentration of 0.125 microg with compound at 400 uM
Homo sapiens [5] = species: Homo sapiens; assay: Mitogen-induced human lymphocyte proliferation measured by incorporation of [3H]thymidine in lymphocytes with Phytohemagglutininin at a concentration of 0.125 microg with out compound
Homo sapiens [6] = species: Homo sapiens; assay: Mitogen-induced human lymphocyte proliferation measured by incorporation of [3H]thymidine in lymphocytes with Phytohemagglutininin at a concentration of 1 ug with compound at 50 uM
Homo sapiens [7] = species: Homo sapiens; assay: Mitogen-induced human lymphocyte proliferation measured by incorporation of [3H]thymidine in lymphocytes with Phytohemagglutininin at a concentration of 1 ug with out compound
Homo sapiens [8] = species: Homo sapiens; assay: Mitogen-induced human lymphocyte proliferation measured by incorporation of [3H]thymidine in lymphocytes with Phytohemagglutininin at a concentration of 0.125 microg with compound at 10 uM
Homo sapiens [9] = species: Homo sapiens; assay: Mitogen-induced human lymphocyte proliferation measured by incorporation of [3H]thymidine in lymphocytes with Pokeweed mitogen at a concentration of 1/5000 microg with compound at 10 uM
Homo sapiens [10] = species: Homo sapiens; assay: Mitogen-induced human lymphocyte proliferation measured by incorporation of [3H]thymidine in lymphocytes with Pokeweed mitogen at a concentration of 1/5000 microg with compound at 0.1 uM
Homo sapiens [11] = species: Homo sapiens; assay: Mitogen-induced human lymphocyte proliferation measured by incorporation of [3H]thymidine in lymphocytes with Pokeweed mitogen at a concentration of 1/5000 microg with compound at 400 uM
Homo sapiens [12] = species: Homo sapiens; assay: Mitogen-induced human lymphocyte proliferation measured by incorporation of [3H]thymidine in lymphocytes with Concanavalin A (Con A) at a concentration of 0.25 microg with compound at 50 uM
Homo sapiens [13] = species: Homo sapiens; assay: Mitogen-induced human lymphocyte proliferation measured by incorporation of [3H]thymidine in lymphocytes with Pokeweed mitogen at a concentration of 1/1250 microg with compound at 0.1 uM
Homo sapiens [14] = species: Homo sapiens; assay: Mitogen-induced human lymphocyte proliferation measured by incorporation of [3H]thymidine in lymphocytes with Pokeweed mitogen at a concentration of 1/5000 microg with compound at 50 uM
Homo sapiens [15] = species: Homo sapiens; assay: Mitogen-induced human lymphocyte proliferation measured by incorporation of [3H]thymidine in lymphocytes with Concanavalin A (Con A) at a concentration of 0.25 microg with compound at 0.1 uM
Homo sapiens [16] = species: Homo sapiens; assay: Mitogen-induced human lymphocyte proliferation measured by incorporation of [3H]thymidine in lymphocytes with Concanavalin A at a concentration of 0.25 microg with compound at 400 uM
Homo sapiens [17] = species: Homo sapiens; assay: Mitogen-induced human lymphocyte proliferation measured by incorporation of [3H]thymidine in lymphocytes with Pokeweed mitogen at a concentration of 1/1250 microg with compound at 400 uM
Homo sapiens [18] = species: Homo sapiens; assay: Mitogen-induced human lymphocyte proliferation measured by incorporation of [3H]thymidine in lymphocytes with Pokeweed mitogen at a concentration of 1/1250 microg with compound at 50 uM
Homo sapiens [19] = species: Homo sapiens; assay: Mitogen-induced human lymphocyte proliferation measured by incorporation of [3H]thymidine in lymphocytes with Phytohemagglutininin at a concentration of 1 ug with compound at 400 uM
Homo sapiens [20] = species: Homo sapiens; assay: Mitogen-induced human lymphocyte proliferation measured by incorporation of [3H]thymidine in lymphocytes with Phytohemagglutininin at a concentration of 1 ug with compound at 0.1 uM
Homo sapiens [21] = species: Homo sapiens; assay: Mitogen-induced human lymphocyte proliferation measured by incorporation of [3H]thymidine in lymphocytes with Phytohemagglutininin at a concentration of 1 ug with compound at 1 uM
Homo sapiens [22] = species: Homo sapiens; assay: Mitogen-induced human lymphocyte proliferation measured by incorporation of [3H]thymidine in lymphocytes with Pokeweed mitogen at a concentration of 1/5000 microg with compound at 1 uM
Homo sapiens [23] = species: Homo sapiens; assay: Mitogen-induced human lymphocyte proliferation measured by incorporation of [3H]-thymidine in lymphocytes with Pokeweed mitogen at a concentration of 1/1250 microg with out compound
Homo sapiens [24] = species: Homo sapiens; assay: Mitogen-induced human lymphocyte proliferation measured by incorporation of [3H]thymidine in lymphocytes with Phytohemagglutininin at a concentration of 1 ug with compound at 10 uM
Homo sapiens [25] = species: Homo sapiens; assay: Mitogen-induced human lymphocyte proliferation measured by incorporation of [3H]thymidine in lymphocytes with Concanavalin A (Con A) at a concentration of 0.25 microg with compound at 10 uM
Homo sapiens [26] = species: Homo sapiens; assay: Mitogen-induced human lymphocyte proliferation measured by incorporation of [3H]thymidine in lymphocytes with Pokeweed mitogen at a concentration of 1/1250 microg with compound at 10 uM
Homo sapiens [27] = species: Homo sapiens; assay: Mitogen-induced human lymphocyte proliferation measured by incorporation of [3H]thymidine in lymphocytes with Phytohemagglutininin at a concentration of 0.125 microg with compound at 1 uM
Homo sapiens [28] = species: Homo sapiens; assay: Mitogen-induced human lymphocyte proliferation measured by incorporation of [3H]thymidine in lymphocytes with Pokeweed mitogen at a concentration of 1/1250 microg with compound at 1 uM
Homo sapiens [29] = species: Homo sapiens; assay: Mitogen-induced human lymphocyte proliferation measured by incorporation of [3H]thymidine in lymphocytes with Concanavalin A (Con A) at a concentration of 0.25 microg with out compound
Homo sapiens [30] = species: Homo sapiens; assay: Mitogen-induced human lymphocyte proliferation measured by incorporation of [3H]thymidine in lymphocytes with Concanavalin A (Con A) at a concentration of 0.25 microg with compound at 1 uM
Homo sapiens [31] = species: Homo sapiens; assay: Mitogen-induced human lymphocyte proliferation measured by incorporation of [3H]thymidine in lymphocytes with Pokeweed mitogen at a concentration of 1/1250 ug with compound at 400 uM
Homo sapiens [32] = species: Homo sapiens; assay: Mitogen-induced human lymphocyte proliferation measured by incorporation of [3H]thymidine in lymphocytes with Phytohemagglutininin at a concentration of 0.25 ug with compound at 400 uM
Homo sapiens [33] = species: Homo sapiens; assay: Mitogen-induced human lymphocyte proliferation measured by incorporation of [3H]-thymidine in lymphocytes with Phytohemagglutininin at a concentration of 1 ug with compound at 10 uM
Homo sapiens [34] = species: Homo sapiens; assay: Mitogen-induced human lymphocyte proliferation measured by incorporation of [3H]thymidine in lymphocytes with Concanavalin A (Con A) at a concentration of 0.5 ug with compound at 50 uM
Homo sapiens [35] = species: Homo sapiens; assay: Mitogen-induced human lymphocyte proliferation measured by incorporation of [3H]thymidine in lymphocytes with Phytohemagglutininin at a concentration of 0.25 ug with out compound
Homo sapiens [36] = species: Homo sapiens; assay: Mitogen-induced human lymphocyte proliferation measured by incorporation of [3H]thymidine in lymphocytes with Phytohemagglutininin at a concentration of 0.25 ug with compound at 50 uM
Homo sapiens [37] = species: Homo sapiens; assay: Mitogen-induced human lymphocyte proliferation measured by incorporation of [3H]thymidine in lymphocytes with Pokeweed mitogen at a concentration of 1/1250 ug with compound at 50 uM
Homo sapiens [38] = species: Homo sapiens; assay: Mitogen-induced human lymphocyte proliferation measured by incorporation of [3H]thymidine in lymphocytes with Concanavalin A (Con A) at a concentration of 0.5 ug with out compound
Homo sapiens [39] = species: Homo sapiens; assay: Mitogen-induced human lymphocyte proliferation measured by incorporation of [3H]-thymidine in lymphocytes with Concanavalin A (Con A) at a concentration of 0.5 ug with compound at 1 uM
Homo sapiens [40] = species: Homo sapiens; assay: Mitogen-induced human lymphocyte proliferation measured by incorporation of [3H]thymidine in lymphocytes with Concanavalin A at a concentration of 0.5 ug with compound at 400 uM
Homo sapiens [41] = species: Homo sapiens; assay: Mitogen-induced human lymphocyte proliferation measured by incorporation of [3H]thymidine in lymphocytes with Phytohemagglutininin at a concentration of 0.25 ug with compound at 10 uM
Homo sapiens [42] = species: Homo sapiens; assay: Mitogen-induced human lymphocyte proliferation measured by incorporation of [3H]thymidine in lymphocytes with Concanavalin A (Con A) at a concentration of 0.5 ug with compound at 10 uM
Homo sapiens [43] = species: Homo sapiens; assay: Mitogen-induced human lymphocyte proliferation measured by incorporation of [3H]thymidine in lymphocytes with Pokeweed mitogen at a concentration of 1/1250 ug with out compound
Homo sapiens [44] = species: Homo sapiens; assay: Mitogen-induced human lymphocyte proliferation measured by incorporation of [3H]thymidine in lymphocytes with Pokeweed mitogen at a concentration of 1/1250 ug with compound at 1 uM
Homo sapiens [45] = species: Homo sapiens; assay: Mitogen-induced human lymphocyte proliferation measured by incorporation of [3H]thymidine in lymphocytes with Pokeweed mitogen at a concentration of 1/1250 ug with compound at 10 uM
Homo sapiens [46] = species: Homo sapiens; assay: Mitogen-induced human lymphocyte proliferation measured by incorporation of [3H]thymidine in lymphocytes with Phytohemagglutininin at a concentration of 0.25 ug with compound at 1 uM
Homo sapiens [47] = species: Homo sapiens; assay: Mitogen-induced human lymphocyte proliferation measured by incorporation of [3H]thymidine in lymphocytes with Concanavalin A (Con A) at a concentration of 0.5 ug with compound at 0.1 uM
Homo sapiens [48] = species: Homo sapiens; assay: Mitogen-induced human lymphocyte proliferation measured by incorporation of [3H]-thymidine in lymphocytes with Phytohemagglutininin at a concentration of 0.25 ug with compound at 0.1 uM
Homo sapiens [49] = species: Homo sapiens; assay: Mitogen-induced human lymphocyte proliferation measured by incorporation of [3H]thymidine in lymphocytes with Pokeweed mitogen at a concentration of 1/1250 ug with compound at 0.1 uM

Nc1nc(O)c2c(C(=O)O)cn(C3O[C@H](CO)[C@@H](O)[C@H]3O)c2n1 (some centres undefined)
Incorporation (Homo sapiens [1]): 15707 | Incorporation (Homo sapiens [2]): 13682 | Incorporation (Homo sapiens [3]): 40053 | Incorporation (Homo sapiens [4]): 1268 | Incorporation (Homo sapiens [5]): 15708 | Incorporation (Homo sapiens [6]): 36835 | Incorporation (Homo sapiens [7]): 40349 | Incorporation (Homo sapiens [8]): 17242 | Incorporation (Homo sapiens [9]): 43600 | Incorporation (Homo sapiens [10]): 47896 | Incorporation (Homo sapiens [11]): 10034 | Incorporation (Homo sapiens [12]): 12990 | Incorporation (Homo sapiens [13]): 51152 | Incorporation (Homo sapiens [14]): 42735 | Incorporation (Homo sapiens [15]): 45121 | Incorporation (Homo sapiens [16]): 9782 | Incorporation (Homo sapiens [17]): 14118 | Incorporation (Homo sapiens [18]): 50597 | Incorporation (Homo sapiens [19]): 55547 | Incorporation (Homo sapiens [20]): 38824 | Incorporation (Homo sapiens [21]): 45537 | Incorporation (Homo sapiens [22]): 44790 | Incorporation (Homo sapiens [23]): 52418 | Incorporation (Homo sapiens [24]): 42486 | Incorporation (Homo sapiens [25]): 42403 | Incorporation (Homo sapiens [26]): 54392 | Incorporation (Homo sapiens [27]): 14865 | Incorporation (Homo sapiens [28]): 53594 | Incorporation (Homo sapiens [29]): 42670 | Incorporation (Homo sapiens [30]): 43757

Nc1nc2c(c(C(=O)N[C@@H](CCC(=O)O)C(=O)O)nn2C2O[C@H](CO)[C@@H](O)[C@H]2O)c(=O)[nH]1 (some centres undefined)
Incorporation (Homo sapiens [31]): 49556 | Incorporation (Homo sapiens [32]): 13781 | Incorporation (Homo sapiens [33]): 50830 | Incorporation (Homo sapiens [34]): 41114 | Incorporation (Homo sapiens [35]): 6506 | Incorporation (Homo sapiens [36]): 14187 | Incorporation (Homo sapiens [37]): 53140 | Incorporation (Homo sapiens [38]): 26393 | Incorporation (Homo sapiens [39]): 49196 | Incorporation (Homo sapiens [40]): 45681 | Incorporation (Homo sapiens [41]): 16224 | Incorporation (Homo sapiens [42]): 47573 | Incorporation (Homo sapiens [6]): 50246 | Incorporation (Homo sapiens [43]): 40443 | Incorporation (Homo sapiens [44]): 56187 | Incorporation (Homo sapiens [7]): 56641 | Incorporation (Homo sapiens [45]): 49105 | Incorporation (Homo sapiens [46]): 12995 | Incorporation (Homo sapiens [47]): 43786 | Incorporation (Homo sapiens [19]): 44427 | Incorporation (Homo sapiens [20]): 49176 | Incorporation (Homo sapiens [21]): 50330 | Incorporation (Homo sapiens [48]): 8002 | Incorporation (Homo sapiens [49]): 51918
